Laboratory results taken from PMC10253445, “Exploring the Potential of Sulfonamide-Dihydropyridine Hybrids as Multitargeted Ligands for Alzheimer’s Disease Treatment” (International Journal of Molecular Sciences, 2023).
Values joined by “and” are separate entries in the source; they are usually repeats but may differ in a detail not shown here. Equal entries are not always repeated. “Also recorded” adds a separate entry of the source.

How the values were obtained:
EeAChE = target: T1, EeAChE (Electrophorus electricus, UniProt O42275); assay: biochemical; settings: for inhibition at 10 µM: read-out: EeAChE % inhibition at 10 μM (IC50 not given)
T1 construct: purified AChE from Electrophorus; purchased Sigma-Aldrich Type V-S; host or cells: natural enzyme purified from Electrophorus electricus
T1 sequence (O42275 24-633): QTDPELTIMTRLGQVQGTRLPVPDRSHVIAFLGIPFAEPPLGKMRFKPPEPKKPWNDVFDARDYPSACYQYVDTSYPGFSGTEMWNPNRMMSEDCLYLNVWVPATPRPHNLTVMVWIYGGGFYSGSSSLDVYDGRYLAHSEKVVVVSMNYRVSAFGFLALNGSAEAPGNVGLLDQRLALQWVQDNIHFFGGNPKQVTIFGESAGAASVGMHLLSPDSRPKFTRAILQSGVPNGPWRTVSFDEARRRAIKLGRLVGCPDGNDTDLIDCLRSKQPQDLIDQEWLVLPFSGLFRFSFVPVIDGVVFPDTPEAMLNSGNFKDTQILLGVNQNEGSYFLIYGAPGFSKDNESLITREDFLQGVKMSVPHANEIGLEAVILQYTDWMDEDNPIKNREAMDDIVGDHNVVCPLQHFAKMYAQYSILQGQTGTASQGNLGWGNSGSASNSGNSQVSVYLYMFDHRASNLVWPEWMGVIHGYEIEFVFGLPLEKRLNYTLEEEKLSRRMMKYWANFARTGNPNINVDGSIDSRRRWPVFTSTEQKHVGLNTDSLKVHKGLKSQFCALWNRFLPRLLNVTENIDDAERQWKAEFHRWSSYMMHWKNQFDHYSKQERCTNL

eqBChE = target: T2, eqBChE (Equus caballus, UniProt P81908); assay: biochemical; type: biochemical; settings: for IC50: read-out: eqBChE IC50 ± SEM; for inhibition at 10 µM: read-out: eqBChE % inhibition at 10 μM (IC50 not given)
T2 construct: BuChE from horse serum; purchased Sigma-Aldrich; host or cells: horse serum
T2 sequence (P81908 whole entry): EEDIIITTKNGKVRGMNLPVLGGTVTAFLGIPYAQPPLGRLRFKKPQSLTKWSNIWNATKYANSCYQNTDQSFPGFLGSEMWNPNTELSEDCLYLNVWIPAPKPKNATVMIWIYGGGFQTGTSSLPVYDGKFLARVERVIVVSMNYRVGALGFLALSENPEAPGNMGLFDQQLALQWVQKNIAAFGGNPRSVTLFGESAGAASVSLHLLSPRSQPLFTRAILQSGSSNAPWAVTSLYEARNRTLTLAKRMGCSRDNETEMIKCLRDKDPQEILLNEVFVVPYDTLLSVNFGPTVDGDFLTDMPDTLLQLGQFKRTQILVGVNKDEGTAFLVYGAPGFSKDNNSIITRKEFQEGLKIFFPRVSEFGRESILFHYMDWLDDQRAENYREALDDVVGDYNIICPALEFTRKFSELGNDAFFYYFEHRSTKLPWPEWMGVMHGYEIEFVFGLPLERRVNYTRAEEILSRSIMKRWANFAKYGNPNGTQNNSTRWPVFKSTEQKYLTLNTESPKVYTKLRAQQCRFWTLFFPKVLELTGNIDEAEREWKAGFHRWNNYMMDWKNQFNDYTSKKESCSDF

calcium channel = assay: Calcium channel blockade, FLIPR calcium indicator 6 in SH-SY5Y cells; type: cell-based; settings: KCl/CaCl2-induced calcium flux
Method: Assessment of calcium channel blockade of compounds 4a–i was performed according to the previously described protocol using the FLIPR calcium indicator 6 [59]. Briefly, FLIPR-loaded SH-SY5Y cells were exposed for 10 min to a 10 μm concentration of the tested compounds and to nimodipine used as a reference. 0.1% DMSO was used as a vehicle. […] Data were collected in three independent experiments with eight technical replicates per experiment. Outliers detected by the Grubbs test were excluded from further analysis.

Nrf2-ARE [1] = assay: Nrf2 transcriptional activation, Nrf2/ARE-luciferase reporter cells; type: cell-based; settings: for CD (concentration required to double the specific luciferase reporter activity): 24 h treatment; for lowest concentration with significant induction of the Nrf2 transcriptional pathway: tested at 1, 5, 10, 25, 50 μM for 24 h
Method: The Nrf2-ARE activating effect of selected 4a, 4d and 4f was evaluated in vitro using a cell-based luciferase assay in the AREc32 cell line, tert-butylhydroquinone (TBHQ) being used as positive control.
Then, AREc32 cells were treated with increasing concentrations of each compound (1, 5, 10, 25, 50 μM) for 24 h, and luciferase activity was then measured.
The evaluation of Nrf2 transcriptional activation was then performed using non-cytotoxic concentrations of the tested compounds according to the protocol previously described. Briefly, the cells were seeded as described for the MTT assay, except that white 96-well culture plates were used. After 48 h of incubation, the cells were treated with the tested compounds or DMSO (0.1%). After 24 h of treatment, luciferase activity was measured using the Bright–Glo Luciferase Assay System (Promega, Madison, WI, USA) according to the manufacturer’s instructions. All reactions were performed in duplicate and repeated in at least four different cultures.

[2] = Oxygen radical absorbance capacity (ORAC) assay; settings: Trolox Equivalents, mean (n = 3) ± SEM
Method: Briefly, in a black 96-well microplate (Nunc), fluorescein and the tested compound were incubated for 15 min at 37 °C. […] All reactions were performed in triplicate, and at least three different assays were performed for each sample.

Nrf2-ARE [3] = tested on: Nrf2-ARE; parameters: method as in PMID 27736061; settings: cited from earlier work

SMILES	inhibition at 10 µM (EeAChE) [%]	Calcium Antagonism (% Inhibition at 10 μM) ± SEM (calcium channel) [%]	CD (concentration required to double the specific luciferase reporter activity) (Nrf2-ARE [1])	ORAC [2]	inhibition at 10 µM (eqBChE) [%]	also measured
COC(=O)C1=C(C)NC(C)=C(C(=O)OC)C1c1ccc(NS(=O)(=O)c2ccccc2)cc1 [Compound 4a, Dimethyl 2,6-Dimethyl-4-(4-(phenylsulfonamido)phenyl)-1,4-dihydropyridine-3,5-dicarboxylate]	< 50	32 ± 5.1	19.3 µM and 19.3 ± 6.7 µM	1.59 TE and 1.59 ± 0.2 TE	–	selectivity AChE vs BChE (eqBChE): totally selective to BChE; also recorded: fully selective inhibition of BChE; IC50 (eqBChE): 5 ± 0.4 µM; lowest concentration with significant induction of the Nrf2 transcriptional pathway (Nrf2-ARE [1]): 25 µM
COC(=O)C1=C(C)NC(C)=C(C(=O)OC)C1c1ccc(NS(=O)(=O)c2ccc(C)cc2)cc1 [Compound 4b, Dimethyl 2,6-Dimethyl-4-(4-((4-methylphenyl)sulfonamido)phenyl)-1,4-dihydropyridine-3,5-dicarboxylate]	< 50	37 ± 5.1	–	1.96 ± 0.1 TE	< 50	–
COC(=O)C1=C(C)NC(C)=C(C(=O)OC)C1c1ccc(NS(C)(=O)=O)cc1 [Compound 4c, Dimethyl 2,6-Dimethyl-4-(4-(methylsulfonamido)phenyl)-1,4-dihydropyridine-3,5-dicarboxylate]	< 50	–	–	3.01 TE and 3.01 ± 0.1 TE	< 50	–
CCOC(=O)C1=C(C)NC(C)=C(C(=O)OCC)C1c1ccc(NS(=O)(=O)c2ccccc2)cc1 [Compound 4d, Diethyl 2,6-Dimethyl-4-(4-(phenylsulfonamido)phenyl)-1,4-dihydropyridine-3,5-dicarboxylate]	< 50	22 ± 4.7	>50 µM	1.67 TE and 1.67 ± 0.0 TE	–	fold less active than tacrine on eqBChE (eqBChE): 135 fold; selectivity AChE vs BChE (eqBChE): totally selective to BChE; also recorded: fully selective inhibition of BChE; IC50 (eqBChE): 0.3 ± 0.1 µM; Nrf2 transcriptional activation (luciferase activity) (Nrf2-ARE [1]; 1-50 μM, 24 h): no significant activity
CCOC(=O)C1=C(C)NC(C)=C(C(=O)OCC)C1c1ccc(NS(=O)(=O)c2ccc(C)cc2)cc1 [Compound 4e, Diethyl 2,6-Dimethyl-4-(4-((4-methylphenyl)sulfonamido)phenyl)-1,4-dihydropyridine-3,5-dicarboxylate]	< 50	26 ± 4.1	–	2.07 ± 0.3 TE	< 50	–
CCOC(=O)C1=C(C)NC(C)=C(C(=O)OCC)C1c1ccc(NS(C)(=O)=O)cc1 [Compound 4f, Diethyl 2,6-Dimethyl-4-(4-(methylsulfonamido)phenyl)-1,4-dihydropyridine-3,5-dicarboxylate]	–	27 ± 3.5	44.3 µM and 44.3 ± 4.7 µM	1.30 TE and 1.30 ± 0.1 TE	–	IC50 (EeAChE; read-out: EeAChE IC50 ± SEM): 12.6 ± 1.2 µM; IC50 (eqBChE): 8.7 ± 0.6 µM; lowest concentration with significant induction of the Nrf2 transcriptional pathway (Nrf2-ARE [1]): 50 µM
CC1=C(C(=O)OC(C)C)C(c2ccc(NS(=O)(=O)c3ccccc3)cc2)C(C(=O)OC(C)C)=C(C)N1 [Compound 4g, Diisopropyl 2,6-Dimethyl-4-(4-(phenylsulfonamido)phenyl)-1,4-dihydropyridine-3,5-dicarboxylate]	< 50	50 ± 4.1	–	0.86 TE and 0.86 ± 0.1 TE	< 50	–
CC1=C(C(=O)OC(C)C)C(c2ccc(NS(=O)(=O)c3ccc(C)cc3)cc2)C(C(=O)OC(C)C)=C(C)N1 [Compound 4h, Diisopropyl 2,6-Dimethyl-4-(4-((4-methylphenyl)sulfonamido)phenyl)-1,4-dihydropyridine-3,5-dicarboxylate]	< 50	51 ± 5.3	–	1.59 ± 0.1 TE	< 50	–
CC1=C(C(=O)OC(C)C)C(c2ccc(NS(C)(=O)=O)cc2)C(C(=O)OC(C)C)=C(C)N1 [Compound 4i, Diisopropyl 2,6-Dimethyl-4-(4-(methylsulfonamido)phenyl)-1,4-dihydropyridine-3,5-dicarboxylate]	< 50	25 ± 5.1	–	1.11 ± 0.3 TE	< 50	–
CC(C)(C)c1cc(O)ccc1O [TBHQ, tert-butylhydroquinone, reference compound]	–	–	1.2 µM and 1.2 ± 0.2 µM	–	–	–
COc1ccc2[nH]cc(CCNC(C)=O)c2c1 [melatonin]	–	–	–	–	–	CD (Nrf2-ARE [3]): 60 µM
COCCOC(=O)C1=C(C)NC(C)=C(C(=O)OC(C)C)C1c1cccc([N+](=O)[O-])c1 (centres unmarked) [nimodipine, reference compound]	–	52 ± 4.1	–	–	–	–
